Reference: patent publication US9096832B2, “Differentiation of human embryonic stem cells” (LifeScan, Inc., priority 2007, dated 2015)

Tested on: H9 embryonic stem cells
Experiment: Microarray analysis of definitive endoderm stage cells on […] or MEFs +/- Wnt-3a (Table VI)
Format: cell-based, human
Settings: low serum
Experimental: Controls for each group included cells plated on [sequence]—coated dishes and cultured in MEF-conditioned medium or cells plated on MEFs and cultured in ES medium. All groups contained three biological replicates and each biological replicate was repeated on two separate gene chips.
Sample preparation, hybridization, and image analysis were performed according to the Affymetrix Human Genome U133 Plus 2.0 Array. Following normalization and a log transformation, data analysis was performed using OmniViz® software (MA) and [sequence] […] Significant differences in gene expression between the samples were evaluated using analysis of variance and an F-test with adjusted P-value (Benjamini and Hochberg correction) of less-than or equal to 0.05. Only genes with a present call in at least one group were included in the analysis.

Substance: Activin A: activin A (a member of the TGFβ superfamily), R&D Systems; 'w/o wnt' in Table VII = 100 ng/ml Activin A without Wnt3a
- Intensity (log): neuropilin 1 (on MATRIGEL): −1.623
- Intensity (log): noggin (on MATRIGEL): −1.636
- Intensity (log): splicing factor, arginine serine-rich 5 (on MATRIGEL): 0.7481
- Intensity (log): stanniocalcin 1 (on MATRIGEL): 2.411
- Intensity (log): ESTs (on MATRIGEL, r13): −4.827
- Intensity (log): ESTs (on MATRIGEL, r16): −3.437
- Intensity (log): solute carrier family 16 (monocarboxylic acid transporters), member 3 (on MATRIGEL, r20): −0.06641
- Intensity (log): Homo sapiens solute carrier family 16 (monocarboxylic acid transporters), member 3 (SLC16A3), mRNA (on MATRIGEL, r30): 0.7103
- Intensity (log): ESTs (on MATRIGEL, r49): −0.04716
- Intensity (log): glycophorin B (includes Ss blood group) (on MATRIGEL, r50): −2.852
- Intensity (log): ESTs (on MATRIGEL, r62): −4.936
- Intensity (log): Homo sapiens HNF-3beta mRNA for hepatocyte nuclear factor-3 beta, complete cds (on MATRIGEL, r66): −2.718
- Intensity (log): ESTs (on MATRIGEL, r81): −2.336
- Intensity (log): ESTs (on MATRIGEL, r92): −2.896
- Intensity (log): ESTs (on MATRIGEL, r98): −3.098
- Intensity (log): ESTs (on MATRIGEL, r108): −1.401
- Intensity (log): Homo sapiens phorbolin-like protein MDS019 (MDS019), mRNA (on MATRIGEL, r121): −1.119
- Intensity (log): ESTs (on MATRIGEL, r129): −1.555
- Intensity (log): ESTs (on MATRIGEL, r136): −0.7315
- Intensity (log): ESTs (on MATRIGEL, r137): −2.036
- Intensity (log): ESTs (on MATRIGEL, r142): −0.6486
- Intensity (log): ESTs (on MATRIGEL, r145): −1.782
- Intensity (log): Cluster Incl. AB028021: Homo sapiens HNF-3beta mRNA for hepatocyte nuclear factor-3 beta, complete cds (on MATRIGEL, r165): −1.5339
- Intensity (log): hypothetical protein FLJ23403 (on MATRIGEL, r205): −1.456
- Intensity (log): matrix metalloproteinase 14 (membrane-inserted) (on MATRIGEL, r215): −2.057
- Intensity (log): Homo sapiens glycophorin B (includes Ss blood group) (GYPB), mRNA (on MATRIGEL, r218): −0.9473
- Intensity (log): ESTs (on MATRIGEL, r234): 0.8128
- Intensity (log): ESTs (on MATRIGEL, r240): 1.068
- Intensity (log): ESTs (on MATRIGEL, r241): −1.412
- Intensity (log): KIAA0878 protein (on MATRIGEL, r250): 1.1189
- Intensity (log): ESTs (on MATRIGEL, r260): 1.481
- Intensity (log): Homo sapiens matrix metalloproteinase 14 (membrane-inserted) (MMP14), mRNA (on MATRIGEL, r270): −0.7235
- Intensity (log): ESTs (on MATRIGEL, r278): 0.5216
- Intensity (log): ESTs (on MATRIGEL, r290): 0.3072
- Intensity (log): ESTs (on MATRIGEL, r301): −3.574
- Intensity (log): ESTs (on MATRIGEL, r314): −0.05909
- Intensity (log): Homo sapiens hypothetical protein FLJ23403 (FLJ23403), mRNA (on MATRIGEL, r315): −1.485
- Intensity (log): ESTs (on MATRIGEL, r319): −0.1824
- Intensity (log): Homo sapiens KIAA0878 protein (KIAA0878), mRNA (on MATRIGEL, r332): 2.0265
- Intensity (log): phorbolin-like protein MDS019 (on MATRIGEL, r340): −1.118
- Intensity (log): ESTs (on MATRIGEL, r347): 0.3539
- Intensity (log): ESTs (on MATRIGEL, r376): −0.3497
- Intensity (log): ESTs (on MATRIGEL, r377): −0.9033
- Intensity (log): 6-phosphofructo-2-kinasefructose-2,6-biphosphatase 4 (on MEFS): 1.6
- Intensity (log): ESTs, Highly similar to IHH_HUMAN INDIAN HEDGEHOG PROTEIN PRECURSOR (H. sapiens) (on MEFS): 0.5905
- Intensity (log): ESTs, Moderately similar to JE0284 Mm-1 cell derived transplantability-associated protein 1b (H. sapiens) (on MEFS): 4.222
- Intensity (log): ESTs, Weakly similar to FCE2 MOUSE LOW AFFINITY IMMUNOGLOBULIN EPSILON FC RECEPTOR (M. musculus) (on MEFS): 3.48
- Intensity (log): ESTs, Weakly similar to the 331st table hypothetical protein KIAA0555 (H. sapiens) (on MEFS): 0.4436
- Intensity (log): G protein-coupled receptor (on MEFS): 5.053
- Intensity (log): G protein-coupled receptor 49 (on MEFS): 2.505
- Intensity (log): Homo sapiens Kell blood group (KEL), mRNA (on MEFS): −0.3839
- Intensity (log): Homo sapiens MLL septin-like fusion (MSF), mRNA (on MEFS): −1.5
- Intensity (log): Homo sapiens Mix-like homeobox protein 1 (MILD1) mRNA, complete cds (on MEFS): 0.922
- Intensity (log): Homo sapiens Rho GTPase activating protein 6 (ARHGAP6), transcript variant 2, mRNA (on MEFS): −1.285
- Intensity (log): Homo sapiens TBX3-iso protein (TBX3-iso), mRNA (on MEFS): 1.07
- Intensity (log): Homo sapiens angiopoietin 2 (ANGPT2), mRNA (on MEFS): 0.5968
- Intensity (log): Homo sapiens ankyrin-like with transmembrane domains 1 (ANKTM1), mRNA (on MEFS): 2.819
- Intensity (log): Homo sapiens apolipoprotein A-I (APOA1), mRNA (on MEFS): 2.469
- Intensity (log): Homo sapiens apolipoprotein A-II (APOA2), mRNA (on MEFS): 4.469
- Intensity (log): Homo sapiens arylsulfatase E (chondrodysplasia punctata 1) (ARSE), mRNA (on MEFS): 3.184
- Intensity (log): Homo sapiens atrophin-1 interacting protein 1; activin receptor interacting protein 1 (KIAA0705), mRNA (on MEFS): −1.32
- Intensity (log): Homo sapiens beta-site APP cleaving enzyme (BACE) mRNA, complete cds (on MEFS): 1.754
- Intensity (log): Homo sapiens cDNA FLJ11550 fis, clone HEMBA1002970 (on MEFS): 4.216
- Intensity (log): Homo sapiens cDNA FLJ12993 fis, clone NT2RP3000197 (on MEFS): 2.069
- Intensity (log): Homo sapiens cDNA FLJ13221 fis, clone NT2RP4002075 (on MEFS): 1.31
- Intensity (log): Homo sapiens cardiac ventricular troponin C mRNA, complete cds (on MEFS): 1.4377
- Intensity (log): Homo sapiens cartilage linking protein 1 (CRTL1), mRNA (on MEFS): −0.8052
- Intensity (log): Homo sapiens cell adhesion molecule with homology to L1CAM (close homologue of L1) (CHL1), mRNA (on MEFS): −2.5002
- Intensity (log): Homo sapiens chromosome 19, cosmid R31181 (on MEFS): 0.2239
- Intensity (log): Homo sapiens clone 23736 mRNA sequence (on MEFS): 4.507
- Intensity (log): Homo sapiens cryptic mRNA, complete cds (on MEFS): −0.6735
- Intensity (log): Homo sapiens cystatin S (CST4), mRNA (on MEFS): 3.87
- Intensity (log): Homo sapiens cystatin SA (CST2), mRNA (on MEFS): 2.1671
- Intensity (log): Homo sapiens cystatin SN (CST1), mRNA (on MEFS): 4.64
- Intensity (log): Homo sapiens cytidine deaminase (CDA), mRNA (on MEFS): −1.67
- Intensity (log): Homo sapiens dual specificity phosphatase 4 (DUSP4), mRNA (on MEFS): 4.122
- Intensity (log): Homo sapiens fibroblast growth factor 8 (androgen-induced) (FGF8), mRNA (on MEFS): 0.01583
- Intensity (log): Homo sapiens fibroblast growth factor 17 (FGF17), mRNA (on MEFS): 2.4872
- Intensity (log): Homo sapiens frizzled-related protein (FRZB), mRNA (on MEFS): 3.676
- Intensity (log): Homo sapiens gastrin-releasing peptide (GRP), mRNA (on MEFS): 0.5098
- Intensity (log): Homo sapiens glycophorin E (GYPE), mRNA (on MEFS): −1.501
- Intensity (log): Homo sapiens glycophorin Erik STA (GPErik) gene complete cds (on MEFS): −0.4544
- Intensity (log): Homo sapiens growth differentiation factor 3 (GDF3), mRNA (on MEFS): 2.875
- Intensity (log): Homo sapiens haptoglobin (HP), mRNA (on MEFS): 0.477
